9 compounds from US20120245344A1 (NIPPON CHEMIPHAR CO., LTD., priority 2009, published 2012) can be followed below.

“Also recorded” adds a separate entry of the source.

The EC50 is the midpoint of the concentration-response curve. Lower therefore signals greater potency. Broadly, the melting point is the temperature, or range, at which the solid turns liquid.

Series [1] relates to glycemic excursions after glucose administration in normal mice. As to the kind of experiment: Oral glucose tolerance test in normal mice. As to conditions: for Inhibition rate (%): 30 min before glucose 3 g/kg, area under the glycemic excursion curve 0-120 min versus vehicle. In kind it is in vivo, mice (male ICR). The protocol: In this experiment, the inhibitory effect of an analyte on glycemic excursions is examined after glucose administration in normal mice. The test methods are described below.
Male 9-week-old ICR mice, habituated to the experimental environment for two weeks, are fasted for 18 hours and used to this experiment. Mice are orally administered the analyte or vehicle (polyethylene glycol 400:ethanol:Tween 80=8:1:1). After 30 minutes, they were orally given glucose at the dose of 3 g/kg.
Blood was collected at just before the analyte or vehicle administration (−30 minutes), immediately before glucose challenge (0 minute), 20 minutes, 40 minutes, 60 minutes, and 120 minutes after glucose ingestion to determine blood glucose levels.
Inhibition rate (%) of the analyte versus vehicle in areas under the glycemic excursion curve between 0 and 120 min after glucose challenge is determined.
In this experiment, we examined the inhibitory effect of test compound on glycemic excursions after glucose administration in normal mice. The test methods are shown as follows.
Male 9-week-old ICR mice, habituated to the experimental environment for two weeks, were fasted for 18 hours and used to this experiment. Mice were orally administered the test compound or vehicle (polyethylene glycol 400:ethanol:Tween80=8:1:1), and after 30 minutes, they were orally given glucose at the dose of 3 g/kg.
Blood was collected at just before the test compound or vehicle administration (−30 min), immediately before glucose challenge (0 min), 20 min, 40 min, 60 min and 120 min after glucose ingestion and then blood glucose levels were determined.
Inhibition rate (%) of the test compound versus vehicle in areas under the glycemic excursion curve between 0 and 120 min after glucose challenge was determined.
Except for the dose of test compounds made 1 mg/kg, the examination was performed by the method similar to Example 89 oral glucose tolerance test in normal mice.

The next series addresses T1, human GPR119 (Homo sapiens, UniProt Q8TDV5).
T1 construct: expressed in transfected cells; host or cells: Flp-in T-Rex-293 cells (Invitrogen #R78007), plasmid pcDNA5/FRT/TO, expression induced with tetracycline
T1 sequence (Q8TDV5 1-335): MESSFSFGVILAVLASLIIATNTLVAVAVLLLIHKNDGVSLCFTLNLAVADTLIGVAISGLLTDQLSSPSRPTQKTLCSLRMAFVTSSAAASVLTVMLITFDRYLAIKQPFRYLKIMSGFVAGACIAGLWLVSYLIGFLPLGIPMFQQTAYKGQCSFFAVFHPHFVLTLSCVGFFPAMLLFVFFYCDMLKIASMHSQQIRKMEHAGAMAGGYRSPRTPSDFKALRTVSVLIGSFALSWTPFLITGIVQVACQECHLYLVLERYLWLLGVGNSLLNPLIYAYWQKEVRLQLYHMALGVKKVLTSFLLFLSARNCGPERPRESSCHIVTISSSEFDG
In words: Measurement of intracellular cAMP in stable cell line expressing human GPR119 (GPR119 agonist effect). The following applies: for EC50: increase of intracellular cAMP, Flp-in T-Rex-293 cells expressing human GPR119, 37° C. for 30 minutes; for GPR119 agonist effect (in words): statement in words on Tables 10 to 13. Format: cell-based.
Source text: The GPR119 agonist effect is studied by measuring the effect of an analyte on increase of intracellular amount of cAMP in human GPR119 introduced cells. The testing method is described below.
Human GPR119 gene (NM 178471) is purchased from ATCC (ATCC No. 10807349), and is amplyfied according to PCR to form BamHI site at 5′ side and Apa I site at 3′ side. The primers are […] (sequence No. 1) and […] (sequence No. 2). The PCR conditions are described below.
The double-stranded DNA is thermally denatured using a DNA polymerase (KOD-Plus-Ver. 2; TOYOBO #KOD-211) at 98° C. for 10 seconds in one cycle. The denatured single-stranded DNA is annealed with the primers at 55° C. for 30 seconds. The DNA is subjected to an extension reaction at 68° C. for 1 minute and 15 seconds. The above-mentioned steps are repeated in 35 cycles. The PCR product is inserted into pcDNA5/FRT/TO (Invitrogen #V6520-20) plasmid. Flp-in T-Rex-293 cells (Invitorogen #R78007) are transfected with the obtained plasmid. The method of transfection is conducted in accordance with the protocol of the product.
(§1) The stable cell line expressing human GPR119 prepared in the above-mentioned method is plated on a 96-well plate at the concentration of 2,500 cells/well using Dulbecco's Modified Eagle Medium (DMEM) containing 10% fetal bovine serum (FBS). Twenty-four hours after plating, tetracyclin (Invitrogen #Q10019) is added at the final concentration of 20 ng/mL to induce hGPR119 gene expression. Twenty-four hours after, the medium is removed, and the cells are stimulated with an assay buffer (0.5 mM IBMX PBS (−)) containing the test compound at 37° C. for 30 minutes. The amount of the intracellular cAMP is measured using a commercially available kit (HitHunter™ cAMP XS+Assay: GE Healthcare #90007503) and a reader (FLUOstar Optima: BMG LABTECH). The test compound is dissolved in 100% DMSO, and added at the final concentration of 1%.
Human GPR119 gene (NM 178471) was purchased from ATCC (ATCC No. 10807349), and is amplyfied according to PCR to form BamHI site at 5′ side and Apa I site at 3′ side. The primers were […] (sequence No. 1) and […] (sequence No. 2). The PCR conditions are described below. The double-stranded DNA was thermally denatured using a DNA polymerase (KOD-Plus-Ver. 2; TOYOBO #KOD-211) at 98° C. for 10 seconds in one cycle. The denatured single-stranded DNA was annealed with the primers at 55° C. for 30 seconds. The DNA was subjected to an extension reaction at 68° C. for 1 minute and 15 seconds. The above-mentioned steps were repeated in 35 cycles. The PCR product was inserted into pcDNA5/FRT/TO (Invitrogen #V6520-20) plasmid. Flp-in T-Rex-293 cells (Invitorogen #R78007) were transfected with the obtained plasmid. The method of transfection was conducted in accordance with the protocol of the product.
as §1, with “method was” for “method is”, “#Q10019) was” for “#Q10019) is”, “medium was” for “medium is”, “cells were” for “cells are”, “cAMP was” for “cAMP is”, “compound was” for “compound is”
The examination was performed by the method similar to Example 87 Pharmacological experiment 1-(1), -(2).

Setting [2] is: 3 mg/kg, statement in words on Table 14.
Setting [3] is: 1 mg/kg, statement in words on Table 15.

Turning to `CC(C)(C)OC(=O)N1CCC(c2ccc(Cn3ccc4cc(S(C)(=O)=O)ccc43)nc2)CC1` [Example 1, tert-Butyl 4-[2-(5-methanesulfonylindol-1-ylmethyl)pyridin-5-yl]piperidine-1-carboxylate], in series [1] (3 mg/kg oral), the “Inhibition rate (%)” value is listed as 37.9%. In series [1] (setting [2]), the “inhibitory effect on glycemic excursions (in words)” value (shortened to “inhibitory effect”) was “excellent inhibitory effect on glycemic excursions; also recorded: excellent inhibitory effect of glycemic excursions”. Moreover, a half-maximal effect on human GPR119 (EC50) was put at 21.2 nM.

Regarding `CC(C)(C)OC(=O)N1CCC(c2ccc(CN3CCc4cc(S(C)(=O)=O)ccc43)nc2)CC1` [Example 2], the “Inhibition rate (%)” value in series [1] (3 mg/kg oral) was 33.7%. Besides, the “inhibitory effect” value in series [1] (setting [2]) is “excellent inhibitory effect on glycemic excursions; also recorded: excellent inhibitory effect of glycemic excursions”. On human GPR119, the EC50 was determined as 20.5 nM and the “GPR119 agonist effect (in words)” value is on record as “excellent GPR119 agonist effect”.

`CC(C)(C)OC(=O)N1CCC(c2ccc(C(=O)N3CCc4cc(S(C)(=O)=O)ccc43)nc2)CC1` [Example 8, tert-Butyl 4-[2-(5-methanesulfonylindoline-1-carbonyl)pyridin-5-yl]piperidine-1-carboxylate] came in with a melting point of 202 to 205 °C.

In turn, `CC(C)(C)OC(=O)N1CCC(c2ccc(COc3ccc4c(c3)C=CS4(=O)=O)nc2)CC1` [Example 10, tert-Butyl 4-[2-(1,1-dioxo-1H-benzo[b]thiophen-5-yloxymethyl)pyridin-5-yl]piperidine-1-carboxylate] yielded a melting point of 154 to 157 °C. The EC50 on human GPR119 was 353 nM.

Consider `CC(C)(C)OC(=O)N1CCC(c2ccc(Cn3ccc4cc(S(C)(=O)=O)c(F)cc43)nc2)CC1` [Example 24, tert-Butyl 4-[2-(6-fluoro-5-methanesulfonylindol-1-ylmethyl)pyridin-5-yl]piperidine-1-carboxylate], for which, in series [1] (1 mg/kg oral), the “Inhibition rate (%)” value came to 37.9%. Moreover, the “inhibitory effect” value in series [1] (setting [3]) was “excellent inhibitory effect on glycemic excursions; also recorded: excellent inhibitory effect of glycemic excursions”. The same compound returned an EC50 at human GPR119 of 19 nM.

For `CC(C)OC(=O)N1CCC(c2ccc(Cn3ccc4cc(-n5cnnn5)cc(F)c43)nc2)CC1` [Example 54, Isopropyl 4-[2-[7-fluoro-5-(tetrazol-1-yl)indol-1-ylmethyl]pyridin-5-yl]piperidine-1-carboxylate], the “Inhibition rate (%)” value in series [1] (1 mg/kg oral) is 36.0%. Further, the “inhibitory effect” value in series [1] (setting [3]) was “excellent inhibitory effect on glycemic excursions; also recorded: excellent inhibitory effect of glycemic excursions”. The same compound had an EC50 on human GPR119 of 9.6 nM.

Turning to `CCC1CN(C(=O)OC(C)(C)C)CC=C1c1ccc(Cn2ccc3cc(S(C)(=O)=O)ccc32)nc1` (centres unmarked) [Example 73, tert-Butyl 3-ethyl-4-[2-(5-methanesulfonylindol-1-ylmethyl)pyridin-5-yl]-3,6-dihydro-2H-pyridine-1-carboxylate], the EC50 at human GPR119 worked out at 32.4 nM. This counts as double-digit nanomolar.

On to `CC(C)(C)OC(=O)N1CCC(F)(c2ccc(Cn3ccc4cc(S(C)(=O)=O)ccc43)nc2)CC1` [Example 76, tert-Butyl 4-fluoro-4-[2-(5-methanesulfonylindol-1-ylmethyl)pyridin-5-yl]piperidine-1-carboxylate], for which the midpoint of the response at human GPR119, the EC50, lay at 42.6 nM.

As to `CC(C)OC(=O)N1CCC(c2cnc(Cn3ccc4cc(-n5cnnn5)cc(F)c43)c(F)c2)CC1` [Example 83, Isopropyl 4-[3-fluoro-2-[7-fluoro-5-(tetrazol-1-yl)indol-1-ylmethyl]pyridin-5-yl]piperidine-1-carboxylate], at human GPR119, the EC50 stood at 10.4 nM and the “GPR119 agonist effect (in words)” value is “excellent GPR119 agonist effect”.
